According to BigSolDB 2.1:

O=Cc1ccc([N+](=O)[O-])cc1
solubility (mole fraction)
Conditions | 273.15 K | 278.15 K | 283.15 K | 288.15 K | 293.15 K | 298.15 K | 303.15 K | 308.15 K | 313.15 K
in 2-butanone | 0.0367 | 0.0459 | 0.0567 | 0.0689 | 0.0836 | 0.102 | 0.122 | 0.147 | 0.174
in DMF | 0.104 | 0.119 | 0.135 | 0.152 | 0.17 | 0.192 | 0.213 | 0.237 | 0.262
in acetone | 0.0389 | 0.051 | 0.0662 | 0.0851 | 0.107 | 0.134 | 0.166 | 0.202 | 0.244
in acetonitrile | 0.0262 | 0.0351 | 0.0471 | 0.0614 | 0.0801 | 0.102 | 0.13 | 0.161 | 0.199
in ethanol | 0.0151 | 0.0177 | 0.0199 | 0.0232 | 0.0265 | 0.031 | 0.0366 | 0.0422 | 0.0498
in ethyl acetate | 0.0321 | 0.0401 | 0.0488 | 0.0591 | 0.072 | 0.087 | 0.106 | 0.126 | 0.151
in isopropanol | 0.00326 | 0.00399 | 0.00451 | 0.005 | 0.00589 | 0.00703 | 0.00843 | 0.00929 | 0.0111
in methanol | 0.0263 | 0.0323 | 0.0398 | 0.0488 | 0.0596 | 0.0731 | 0.0884 | 0.108 | 0.13
in n-butanol | 0.0118 | 0.0128 | 0.0144 | 0.0161 | 0.018 | 0.02 | 0.0225 | – | 0.0283
in n-propanol | 0.014 | 0.0152 | 0.0168 | 0.019 | 0.0216 | 0.0243 | 0.0272 | 0.0312 | 0.0362
in toluene | 0.0191 | 0.0239 | 0.0297 | 0.0366 | 0.0449 | 0.0547 | 0.0657 | 0.0802 | 0.0969
